Data on seven compounds can be found in paper PMC5427163, “Simple and cost-effective liquid chromatography-mass spectrometry method to measure dabrafenib quantitatively and six metabolites semi-quantitatively in human plasma” (Analytical and Bioanalytical Chemistry, 2017).

Data set [1] is described as follows: LC-MS/MS measurement of dabrafenib and metabolites in patient plasma at steady state. The format is in vivo, human. Particulars: for Plasma concentration in typical patient sample: Fig. 3, single patient sample; for Diff (difference between the highest and lowest concentrations) / Median C (plasma concentration) / Range of plasma concentration: patient plasma, steady state, dabrafenib 150 mg BID orally. Here is the method:
Seven blood samples were obtained between 14 and 17 h after last dose from four different patients with disseminated melanoma after 1, 2, or 3 months of treatment with dabrafenib at the full recommended dose of 150 mg BID orally. […] Plasma was collected after centrifugation, immediately frozen, and stored at −80 °C until analysis. The study protocol was approved by the Ethical Review Board in Stockholm (DNR 2011/1980-31/1) and written informed consent was obtained from patients prior to study entry. Drug-free ethylenediaminetetraacetic acid (EDTA) plasma was donated from six volunteers (three males and three females) with an average age of 26 (22–30) years.
Fifty microliters aliquots of plasma was thawed and precipitated with 200 μL of internal standard mixture containing erlotinib-d6 (200 ng/mL) in acetonitrile. Following vortex mixing, the samples were centrifuged (17530 RCF, 5 min, 4 °C). The supernatant (150 μL) was mixed with 150 μL water and transferred to a 0.7-mL 96-well plate.
Calibration standards for dabrafenib were prepared at seven levels in the concentration range 5–5000 ng/mL (5-15-60-250-1000-3750-5000) by diluting the corresponding working stock solutions 1:10 with drug-free plasma. The upper limit of quantification (ULOQ) was selected based on the highest expected dabrafenib concentration, and the lower limit of quantification (LLOQ) was selected based on observed carry-over from the ULOQ. LOD was not determined as LLOQ was limited by the carry-over. QC samples were prepared separately from the calibration standards at four levels (LLOQ-low-medium-high, 5-15-250-3750 ng/ml).
Due to the lack of reference materials, the six metabolites were semi-quantitatively determined using the calibration curve for dabrafenib. The bias caused by, among other things, differences in recovery and ionization efficiency was not corrected for. This bias is indicated by the addition of an asterisk to the units of metabolite concentrations.

In data set [2] the test system is BRAFV600E. The arrangement: method as in earlier work. The following applies: cited from earlier work.
For data set [3] the following is noted: cited from earlier work; for Variation of plasma concentration during a 12-h period: after a 150-mg dose of dabrafenib at steady state (day 15).
A short description of data set [4]: Stability of dabrafenib in spiked whole blood, plasma and processed samples. Particulars: for Concentration relative to nominal concentration (Rel): long term, −80 °C for 16 months. The format is in vitro ADME, human. Here is the method:
Stability was evaluated at the low and high QC levels. Processed sample stability by re-injection of calibration and QC samples after 24 h at 5 °C. Freeze-thaw stability (n = 3) was determined for three freeze-thaw cycles at −80 °C. Short-term stability of dabrafenib was investigated in whole blood and plasma using spiked drug-free plasma (n = 2) stored at room temperature or 5 °C for 0, 24, 48, and 72 h, respectively. Long-term stability of dabrafenib (QC low, QC middle, and QC high; n = 3) was determined for a sample stored at −80 °C for 16 months. Accuracy within ±15% of the nominal value was required to consider dabrafenib stable under all conditions.

Assay in data set [5]: as above
The format is in vitro ADME, human. Particulars: 72 h 4°C.

On the set-up of data set [6]: method as in PMID 22735384. Particulars: phase III trial; cited from earlier work.
A short description of data set [7]: Clinical pharmacokinetics of dabrafenib (literature). The data set is classed as in vivo, human. The following applies: plasma.
[8] abbreviates: semi-quantification based on the calibration curve of dabrafenib.
[9] abbreviates: 14-17 h after last dose, semi-quantification based on the calibration curve of dabrafenib.

Molecules are shown by their SMILES. Marks after values point to notes of the source that are not given here.

For the compound `C=C(COC1OC(C(=O)O)C(O)C(O)C1O)c1nc(-c2cccc(NS(=O)(=O)c3c(F)cccc3F)c2F)c(-c2ccnc(N)n2)s1` (stereo not drawn) [Gluc met], in data set [1] (setting [8]), the “Plasma concentration in typical patient sample” value was 32 ng/mL and the “Range of plasma concentration” value is listed as “(22–65)^b ng/ml”. In addition, the “Diff (difference between the highest and lowest concentrations)” value in data set [1] is reported as 3-fold. In data set [1] (setting [9]), the “Median C (plasma concentration)” value is on record as 38^a ng/ml.
As for `C=C(C)c1nc(-c2cccc(NS(=O)(=O)c3c(F)cccc3F)c2F)c(-c2ccnc(N)n2)s1` [M31], in data set [1] (setting [8]), the “Plasma concentration in typical patient sample” value was determined as 550 ng/mL and the “Range of plasma concentration” value is reported as “(160–590) ng/ml”. In data set [1], the “Diff (difference between the highest and lowest concentrations)” value was 4-fold. Besides, in data set [1] (setting [9]), the “Median C (plasma concentration)” value was 400^a ng/ml.
Consider `CC(C)(CO)c1nc(-c2cccc(NS(=O)(=O)c3c(F)cccc3F)c2F)c(-c2ccnc(N)n2)s1` [Hydroxy-Dab, hydroxy-dabrafenib], for which the “IC50 relative to dabrafenib (fold higher)” value in data set [2] is reported as “approximately 3 fold”. In data set [1] (setting [8]), the “Plasma concentration in typical patient sample” value is 280 ng/mL and the “Range of plasma concentration” value is on record as “(19–278) ng/ml”. Further, the “Diff (difference between the highest and lowest concentrations)” value in data set [1] is 15-fold. Also, the “Median C (plasma concentration)” value in data set [1] (setting [9]) is reported as 74^a ng/ml. Moreover, the “Variation of plasma concentration during a 12-h period” value in data set [3] was 7 fold.
In the case of `CC(C)c1nc(-c2cccc(NS(=O)(=O)c3c(F)cccc3F)c2F)c(-c2ccnc(N)n2)s1` [Desmethyl-Dab, desmethyl-dabrafenib], the “IC50 relative to dabrafenib (fold higher)” value in data set [2] is reported as around 2 fold. Besides, in data set [1] (setting [8]), the “Plasma concentration in typical patient sample” value came to 660 ng/mL and the “Range of plasma concentration” value is “(170–660) ng/ml”. In data set [1], the “Diff (difference between the highest and lowest concentrations)” value is 4-fold. For the same compound, the “Median C (plasma concentration)” value in data set [1] (setting [9]) was 400^a ng/ml. Besides, the “Variation of plasma concentration during a 12-h period” value in data set [3] is recorded as “around 1.5 fold”.
Turning to `CCCS(=O)(=O)Nc1ccc(F)c(C(=O)c2c[nH]c3ncc(-c4ccc(Cl)cc4)cc23)c1F` [vemurafenib], the Inter-patient variability in data set [3] is 30–60%.
With `CC(C)(C)c1nc(-c2cccc(NS(=O)(=O)c3c(F)cccc3F)c2F)c(-c2ccnc(N)n2)s1` [Dabrafenib], the “Long-term stability in plasma” value in data set [4] (16 months of storage at −80 °C) is “stable”. In data set [4] (24 h at 5 °C, stable = accuracy within ±15% of nominal), the “Stability of processed samples” value was “stable”. Further, in data set [4] (72 h at room temperature and at 5 °C, stable = accuracy within ±15% of nominal), the “Short-term stability in whole blood or plasma” value was “stable”. The “Concentration relative to initial sample concentration (Rel)” value came to 106% in data set [4] (plasma, High QC, 72 h 4°C); 101% in data set [4] (plasma, High QC, 72 h RT); 96% in data set [4] (plasma, High QC, three freeze-thaw cycles at −80 °C); 98% in data set [4] (plasma, Low QC, 72 h RT); 98% in data set [4] (plasma, Low QC, three freeze-thaw cycles at −80 °C); 89% in data set [4] (processed sample, High QC, 24 h 5°C). Also, the “Concentration relative to initial sample concentration (Rel)” value in data set [4] (processed sample, Low QC, 24 h 5°C) is on record as 87%; in data set [4] (whole blood, High QC, 72 h RT) it was 95%; in data set [4] (whole blood, Low QC, 72 h RT), 94%; in data set [5] (plasma, Low QC), 109%; in data set [5] (whole blood, High QC), 99%; in data set [5] (whole blood, Low QC), 99%. The “Concentration relative to nominal concentration (Rel)” value in data set [4] (plasma, High QC) was 106%; in data set [4] (plasma, Low QC), 101%. In addition, the “Freeze-thaw stability in plasma” value in data set [4] (three freeze-thaw cycles) is recorded as “stable”. In data set [1] (Fig. 2), the “Plasma concentration in lowest patient sample” value is recorded as 75 ng/mL. Besides, in data set [1] (quantitative), the “Plasma concentration in typical patient sample” value is 1400 ng/mL. Moreover, the “Diff (difference between the highest and lowest concentrations)” value in data set [1] is 19-fold. The “Median C (plasma concentration)” value in data set [1] (14-17 h after last dose, 7 samples from 4 patients, quantitative) was determined as 400 ng/mL. Besides, the “Range of plasma concentration” value in data set [1] (14-17 h after last dose, quantitative) is “(75–1400) ng/ml”. The “Variation of plasma concentration during a 12-h period” value in data set [3] was 16 fold. Also, the “Inter-patient coefficient of variation (CV) in maximum concentration at steady state” value in data set [3] is 73%. In data set [3] (patients), the Half-life is given as 4.8 h. In addition, the “Patients with adverse events of grade 2 or greater” value in data set [6] was 53%.
For the compound `CC(C)(C(=O)O)c1nc(-c2cccc(NS(=O)(=O)c3c(F)cccc3F)c2F)c(-c2ccnc(N)n2)s1` [Carboxy-Dab, carboxy-dabrafenib], the “Concentration reported by Falchook et al. relative to this study (fold higher)” value in data set [7] is 8 fold. In data set [1] (setting [8]), the “Plasma concentration in typical patient sample” value is 400 ng/mL and the “Range of plasma concentration” value is on record as “(230–690) ng/ml”. The “Diff (difference between the highest and lowest concentrations)” value in data set [1] is listed as 3-fold. Moreover, the “Median C (plasma concentration)” value in data set [1] (setting [9]) is 450^a ng/ml. In addition, the “Variation of plasma concentration during a 12-h period” value in data set [3] was “around 1.5 fold”.
